Measurements: patent publication US20110294663A1, “Herbicidal composition for tolerant or resistant corn crops” (priority 2010, published 2011)

Assays:
Format in all cases: in vivo
corn (GA-tolerant) = assay: Greenhouse trial: crop plant compatibility
Method: (§1) The trials were carried out under greenhouse conditions (test pots, diameter 8 cm, spray application using 300 l of water/hectare, 2 repetitions, 6 to 8 plants per pot).
(§2) Scoring was by visual comparison of the treated with the untreated control pots (0-100% scale, 14 d after the application).

Setaria faberii = assay: Greenhouse trial: herbicidal efficacy, Setaria faberii; conditions: Table 5; post-emergence, 1-3-leaf stage, scoring 14 days after treatment; g of ai/ha: A1.1 100; B1.1 5; C7 15; C13 2.5; C9 12.5 alone, 2.5 in combination
Method: as §1
(§3) Application was by post-emergence treatment; the species of the harmful plants and their stage of growth at the time of treatment are indicated in the individual results tables. The application rates of the herbicidally active compounds used on their own or in combinations are likewise listed in the individual results tables.
as §2
(§4) 4.2 Abbreviations used in Tables 4 to 8 application rate g/ai=application rate in grams of active compound per hectare • ai=active ingredient (of an active compound content of 100%) • GA=glufosinate-ammonium • GA-tolerant=corn which is tolerant to GA (GMO: LL corn) • E^C=expected value according to Colby, (E^C=A+B−A×B/100)= • =for ternary combinations: (A+B)+C−(A+B)×C/100 • Δ=difference (%) between observed value -%- vs. expected value (%) (observed value minus expected value) • examination: —observed values for (A), (B) and (A)+(B) in % • scoring: —observed value (%) greater>than E^C/E^A: ->synergism (+A) • —observed value (%) equal to =E^C/E^A->additive effect (+−Δ) • —observed value (%) smaller<than E^A/E^C->antagonism (−Δ)

Setaria viridis = assay: Greenhouse trial: herbicidal efficacy, Setaria viridis; conditions: Table 6; post-emergence, 1-3-leaf stage, scoring 14 days after treatment; g of ai/ha: A1.1 100; B1.1 5; C3 5; C11 25
Method: as §1, §3, §2, §4

Pharbitis purpureum = assay: Greenhouse trial: herbicidal efficacy, Pharbitis purpureum; conditions: Table 7; post-emergence, 1-leaf stage, scoring 14 days after treatment; g of ai/ha: A1.1 100; B1.1 5; C12 50
Method: as §1, §3, §2, §4

Eleusine indica = assay: Greenhouse trial: herbicidal efficacy, Eleusine indica; conditions: Table 8; post-emergence, 1-2-leaf stage, scoring 14 days after treatment; g of ai/ha: A1.1 100; B1.1 5; C8 0.5; isoxadifen 100; cyprosulfamide 100; C′ = isoxadifen in r19, cyprosulfamide in r23
Method: as §1, §3, §2, §4

[1] = Table 4, post-emergence, 1-2-leaf stage, scoring 14 days after treatment, g of ai/ha: A1.1 100, B1.1 2.5 alone, 5 in combinations, C1 2.5, C2 1.25, C10 250, C4 50, C5 1, C6 2
[2] = Table 5, post-emergence, 1-3-leaf stage, scoring 14 days after treatment, g of ai/ha: A1.1 100, B1.1 5, C7 15, C13 2.5, C9 12.5 alone, 2.5 in combination
[3] = Table 8, post-emergence, 1-2-leaf stage, scoring 14 days after treatment, g of ai/ha: A1.1 100, B1.1 5, C8 0.5, isoxadifen 100, cyprosulfamide 100, C′ = isoxadifen in r19, cyprosulfamide in r23

Question: What does the source list for `CP(=O)(O)CCC(N)C(=O)O` (centres unmarked) [(A1.1) GA, glufosinate-ammonium]?
Answer: Damage to crop plants (%) corn (GA-tolerant) (≦15-20% acceptable) (corn (GA-tolerant); [1]): 0%; Damage to crop plants (%) corn (GA-tolerant) (≦15-20% acceptable) (corn (GA-tolerant); [2]): 0%; Damage to crop plants (%) corn (GA-tolerant) (≦15-20% acceptable) (corn (GA-tolerant); Table 6, post-emergence, 1-3-leaf stage, scoring 14 days after treatment, g of ai/ha: A1.1 100, B1.1 5, C3 5, C11 25): 0%; Damage to crop plants (%) corn (GA-tolerant) (≦15-20% acceptable) (corn (GA-tolerant); Table 7, post-emergence, 1-leaf stage, scoring 14 days after treatment, g of ai/ha: A1.1 100, B1.1 5, C12 50): 0%; Damage to crop plants (%) corn (GA-tolerant) (≦15-20% acceptable) (corn (GA-tolerant); [3]): 0%; Herbicidal efficacy % Setaria faberii (Setaria faberii): 10%; Herbicidal efficacy % Setaria viridis (Setaria viridis): 5%; Herbicidal efficacy % Pharbitis purpureum (Pharbitis purpureum): 45%

Question: Which “Damage to crop plants (%) corn (GA-tolerant) (≦15-20% acceptable)” value (shortened to “Damage to crop plants (%) corn”) (corn (GA-tolerant); in vivo) does the source give for `COC(=O)c1nc(-c2ccc(Cl)c(OC)c2F)cc(N)c1Cl` [(B1.1), methyl 4-amino-3-chloro-6-(4-chloro-2-fluoro-3-methoxyphenyl)pyridine-2-carboxylate] here?
Answer: 0%

Question: What about the “Herbicidal efficacy % Setaria faberii” value (Setaria faberii) of the same compound?
Answer: 96%

Question: What about the “Herbicidal efficacy % Setaria viridis” value (Setaria viridis) of the same compound?
Answer: 90%

Question: What about the “Herbicidal efficacy % Pharbitis purpureum” value (Pharbitis purpureum) of the same compound?
Answer: 45%

Question: Which results are given for `CS(=O)(=O)c1cc(C(F)(F)F)ccc1C(=O)c1cnoc1C1CC1` [(C3) isoxaflutole, isoxaflutole]?
Answer: Damage to crop plants (%) corn (GA-tolerant) (≦15-20% acceptable) (corn (GA-tolerant); in vivo): 15%; Herbicidal efficacy % Setaria viridis (Setaria viridis): 0%

Question: How did the “Damage to crop plants (%) corn” value (corn (GA-tolerant); [1]) turn out when `N#Cc1cc(Br)c(O)c(Br)c1` [(C4) bromoxynil, bromoxynil] was run?
Answer: 0%

Question: Which “Damage to crop plants (%) corn” value (corn (GA-tolerant); [1]) does the source give for `C#CCN1C(=O)COc2cc(F)c(N3C(=O)C4=C(CCCC4)C3=O)cc21` [(C5) flumioxazin, flumioxazin] here?
Answer: 15%

Question: Which “Damage to crop plants (%) corn” value (corn (GA-tolerant); [2]) does the source give for `CS(=O)(=O)c1ccc(C(=O)C2C(=O)CCCC2=O)c([N+](=O)[O-])c1` [(C7) mesotrione, mesotrione] here?
Answer: 0%

Question: And the “Herbicidal efficacy % Setaria faberii” value (Setaria faberii)?
Answer: 0%

Question: For `COC(=O)c1csc(C)c1S(=O)(=O)NC(=O)n1nc(OC)n(C)c1=O` [(C8) thiencarbazone-me, thiencarbazone-methyl], which “Damage to crop plants (%) corn” value (corn (GA-tolerant); [3]) is on record?
Answer: 0%

Question: And the “Herbicidal efficacy % Eleusine indica” value (Eleusine indica)?
Answer: 10%

Question: How did the “Herbicidal efficacy % Setaria faberii” value (Setaria faberii) turn out when `CS(=O)(=O)c1ccc(C(=O)C2C(=O)CCCC2=O)c(Cl)c1COCC(F)(F)F` [(C9) tembotrione, tembotrione] was run?
Answer: 10%

Question: With `CCNc1nc(Cl)nc(NC(C)C)n1` [(C10) atrazin, atrazine] as the compound, how does the “Damage to crop plants (%) corn” value (corn (GA-tolerant); [1]) read?
Answer: 0%

Question: For `CC(C)N(C(=O)COc1nnc(C(F)(F)F)s1)c1ccc(F)cc1` [(C11) flufenacet, flufenacet], which “Damage to crop plants (%) corn” value (corn (GA-tolerant); in vivo) is on record?
Answer: 0%

Question: What about the “Herbicidal efficacy % Setaria viridis” value (Setaria viridis) of the same compound?
Answer: 0%

Question: With `CCOCN(C(=O)CCl)c1c(C)cccc1CC` [(C12) acetochlor, acetochlor] as the compound, how does the “Damage to crop plants (%) corn” value (corn (GA-tolerant); in vivo) read?
Answer: 0%

Question: And the “Herbicidal efficacy % Pharbitis purpureum” value (Pharbitis purpureum)?
Answer: 10%

Question: `Cc1c(C(=O)c2cnn(C)c2O)ccc(S(C)(=O)=O)c1C1=NOCC1` [(C13) topramezone, topramezone] was tested. Which “Damage to crop plants (%) corn” value (corn (GA-tolerant); [2]) did it give?
Answer: 0%

Question: And the “Herbicidal efficacy % Setaria faberii” value (Setaria faberii)?
Answer: 10%

Question: Which “Damage to crop plants (%) corn” value (corn (GA-tolerant); [3]) does the source give for `O=C(O)C1=NOC(c2ccccc2)(c2ccccc2)C1` [(C14) isoxadifen, isoxadifen] here?
Answer: 0%

Question: And the “Herbicidal efficacy % Eleusine indica” value (Eleusine indica)?
Answer: 0%

Question: With `COc1ccccc1C(=O)NS(=O)(=O)c1ccc(C(=O)NC2CC2)cc1` [(C15) cyprosulfamide, cyprosulfamide] as the compound, how does the “Damage to crop plants (%) corn” value (corn (GA-tolerant); [3]) read?
Answer: 0%

Question: What about the “Herbicidal efficacy % Eleusine indica” value (Eleusine indica) of the same compound?
Answer: 0%
